Test results: US6360743B1, “System for dispensing pharmaceutical active compounds” (AB Astra, priority 1992, dated 2002)

Assays:
[1] = Absolute systemic availability and lung deposition of inhaled budesonide (plasma LC-MS); type: in vivo, healthy subjects; conditions: for Cmax / Tmax: human, plasma, inhaled or intranasal, 1 mg, 1 mg inhaled; for absolute systemic availability (geometric mean): 1 mg as five inhalations of 200 micrograms, vs 0.5 mg intravenously; for amount deposited and absorbed in the lung (geometric mean, range): calculated assuming 13% availability of swallowed budesonide
Procedure: In order to determine the absolute systemic availability and the amount of budesonide deposited and absorbed in the lung after inhalation via TURBUHALER and via an MDI, 24 healthy subjects were given budesonide 1 mg as five inhalations of 200 micrograms each, via TURBUHALER inhaler or via MDI, and 0.5 mg intravenously, on separate study days. Budesonide levels were determined in plasma by a LC-MS method. The amount of budesonide absorbed in the lung was calculated on the assumption of an availability of swallowed budesonide of 13%. Furthermore, absorption in the lung was calculated in 13 of the subjects after inhalation with concomitant oral dosing of charcoal to prevent absorption of budesonide from the gastrointestinal track. There was good conformity between the two modes of calculation.

[2] = generally regarded; cited from earlier work

Structure (SMILES) | lung deposition from TURBUHALER relative to MDI ([1]; TURBUHALER versus MDI) | Cmax ([1]; via MDI) | Tmax ([1]; via MDI) | Cmax ([1]; via TURBUHALER) | Tmax ([1]; via TURBUHALER) | absolute systemic availability (geometric mean) ([1]; via MDI) | amount deposited and absorbed in the lung (geometric mean, range) ([1]; via MDI) | absolute systemic availability (geometric mean) ([1]; via TURBUHALER) | amount deposited and absorbed in the lung (geometric mean, range) ([1]; via TURBUHALER) | dose regarded as equipotent to 0.25 mg of terbutaline sulphate [2]
CCCC1O[C@@H]2C[C@H]3[C@@H]4CCC5=CC(=O)C=C[C@]5(C)[C@H]4[C@@H](O)C[C@]3(C)[C@]2(C(=O)CO)O1 (stereo partly shown) [budesonide] | twice that from an MDI | 2.3 nM | 30 min | 3.6 nM | 18 min | 28% | 15% (3%-47%) | 38% | 32% (16%-59%) | 
CC(C)(C)NCC(O)c1ccc(O)c(CO)c1 (stereo not shown) [salbutamol] |  |  |  |  |  |  |  |  |  | 0.1 mg
